{
  "source": "patent US11285127B2",
  "about": "“Compositions and methods for lowering triglycerides without raising LDL-C levels in a subject on concomitant statin therapy” (Amarin Pharmaceuticals Ireland Limited, priority 2013, dated 2022)",
  "type_in_all_cases": "in vivo, human",
  "key": {"[1]": {"system": "patients with fasting triglyceride levels >200 mg/dl and <500 mg/dl despite statin therapy", "experiment": "12-week study: oxidized LDL", "conditions": "MITT; for Oxidized LDL Percent change from Baseline Median (IQR): Week 12 endpoint; for Oxidized LDL Difference from placebo Estimated median: percent change from baseline to Week 12 endpoint", "source_text": "(§1) Parameters (a)-(z) can be measured in accordance with any clinically acceptable methodology. For example, triglycerides, total cholesterol, HDL-C and fasting blood sugar can be sample from serum and analyzed using standard photometry techniques. VLDL-TG, LDL-C and VLDL-C can be calculated or determined using serum lipoprotein fractionation by preparative ultracentrifugation and subsequent quantitative analysis by refractometry or by analytic ultracentrifugal methodology. Apo A1, Apo B and hsCRP can be determined from serum using standard nephelometry techniques. Lipoprotein (a) can be determined from serum using standard turbidimetric immunoassay techniques. LDL particle number and particle size can be determined using nuclear magnetic resonance (NMR) spectrometry. Remnants lipoproteins and LDL-phospholipase A2 can be determined from EDTA plasma or serum and serum, respectively, using enzymatic immunoseparation techniques. Oxidized LDL, intercellular adhesion molecule-1 and interleukin-2 levels can be determined from serum using standard enzyme immunoassay techniques. These techniques are described in detail in standard textbooks, for example Tietz Fundamentals of Clinical Chemistry, 6th Ed. (Burtis, Ashwood and Borter Eds.), WB Saunders Company.\n(§2) A multi-center, placebo-controlled, randomized, double-blind, 12-week study was performed to evaluate the efficacy and safety of >96% E-EPA in patients with fasting triglyceride levels >200 mg/dl and <500 mg/dl despite statin therapy (the mean of two qualifying entry values needed to be >185 mg/dl and at least one of the values needed to be >200 mg/dl). The primary objective of the study was to determine the efficacy of >96% E-EPA 2 g daily and 4 g daily, compared to placebo, in lowering fasting TG levels in patients with high risk for cardiovascular disease and with fasting TG levels 200 mg/dl and <500 mg/dl, despite treatment to LDL-C goal on statin therapy.\n(§3) The secondary objectives of this study were the following: • 1. To determine the safety and tolerability of >96% E-EPA 2 g daily and 4 g daily; • 2. To determine the effect of >96% E-EPA on lipid and apolipoprotein profiles including total cholesterol (TC), non-high-density lipoprotein cholesterol (non-HDL-C), low density lipoprotein cholesterol (LDL-C), high density lipoprotein cholesterol (HDL-C), and […]; • 3. To determine the effect of >96% E-EPA on lipoprotein associated phospholipase A2 (Lp-PLA2) from baseline to week 12; • 4. To determine the effect of >96% E-EPA on low-density lipoprotein (LDL) particle number and size; • 5. To determine the effect of >96% E-EPA on oxidized LDL; • 6. To determine the effect of >96% E-EPA on fasting plasma glucose (FPG) and hemoglobin A1c (HbA1c); • 7. To determine the effect of >96% E-EPA on insulin resistance; • 8. To determine the effect of >96% E-EPA on high-sensitivity C-reactive protein (hsCRP); • 9. To determine the effects of >96% E-EPA 2 g daily and 4 g daily on the incorporation of fatty acids into red blood cell membranes and into plasma phospholipids; • 10. To explore the relationship between baseline fasting TG levels and the reduction in fasting TG levels; and • 11. To explore the relationship between changes of fatty acid concentrations in plasma and red blood cell membranes, and the reduction in fasting TG levels.\n(§4) The primary efficacy variable for the double-blind treatment period was percent change in TG from baseline to Week 12 endpoint. […]"}, "[2]": {"system": "patients with fasting triglyceride levels >200 mg/dl and <500 mg/dl despite statin therapy", "experiment": "12-week study: lipoprotein associated phospholipase A2 (Lp-PLA2)", "conditions": "MITT; for Lp-PLA2 Percent change from Baseline Median (IQR): Week 12 endpoint; for Lp-PLA2 Difference from placebo Estimated median: percent change from baseline to Week 12 endpoint", "source_text": "as §1, §2, §3, §4"}, "[3]": {"system": "patients with fasting triglyceride levels >200 mg/dl and <500 mg/dl despite statin therapy", "experiment": "12-week study: apolipoproteins (Apo A-1, Apo B, ratio) and lipoprotein(a)", "conditions": "for Apo A1 Week 12 EP Median (IQR) / Apo B Week 12 EP Median (IQR) / Apo B/Apo A1 ratio Week 12 EP Median (IQR) / Lp (a) Week 12 EP Median (IQR) / Apo A1 Percent change from Baseline Median (IQR) / Apo B Percent change from Baseline Median (IQR) / Apo B/Apo A1 ratio Percent change from Baseline Median (IQR) / Lp (a) Percent change from Baseline Median (IQR) / Apo A1 Difference from placebo Estimated median / Apo B Difference from placebo Estimated median / Apo B/Apo A1 ratio Difference from placebo Estimated median / Lp (a) Difference from placebo Estimated median: MITT; for Apo A1 Percent change from Baseline Median (IQR) / Apo B Percent change from Baseline Median (IQR) / Apo B/Apo A1 ratio Percent change from Baseline Median (IQR) / Lp (a) Percent change from Baseline Median (IQR): Week 12 endpoint; for Apo A1 Difference from placebo Estimated median / Apo B Difference from placebo Estimated median / Apo B/Apo A1 ratio Difference from placebo Estimated median / Lp (a) Difference from placebo Estimated median: percent change from baseline to Week 12 endpoint", "source_text": "as §1, §2\nThe primary efficacy variable for the double-blind treatment period was percent change in TG from baseline to Week 12 endpoint. The secondary efficacy variables for the double-blind treatment period included the following: • Percent changes in total cholesterol (TC), high-density lipoprotein cholesterol (HDL-C), LDL-C, calculated non-HDL-C, and very low-density lipoprotein cholesterol (VLDL-C) from baseline to Week 12 endpoint; • Percent change in very low-density lipoprotein TG from baseline to Week 12; • Percent changes in apolipoprotein A-I (Apo A-1), apolipoprotein B (Apo B), and Apo A-1/Apo B ratio from baseline to Week 12; • Percent changes in lipoprotein(a) from baseline to Week 12; • Percent changes in LDL particle number and size, measured by nuclear magnetic resonance, from baseline to Week 12; • Percent change in remnant-like particle cholesterol from baseline to Week 12; • Percent change in oxidized LDL from baseline to Week 12; • Changes in FPG and HbA1c from baseline to Week 12; • Change in insulin resistance, as assessed by the homeostasis model index insulin resistance, from baseline to Week 12; • Percent change in lipoprotein associated phospholipase A2 (Lp-PLA2) from baseline to Week 12; • Change in intracellular adhesion molecule-1 from baseline to Week 12; • Change in interleukin-2 from baseline to Week 12; • Change in plasminogen activator inhibitor-1 from baseline to Week 12. Note: this parameter will only be collected at sites with proper storage conditions; • Change in hsCRP from baseline to Week 12; and • Change in plasma concentration and red blood cell membrane content of fatty acid from baseline to Week 12 including EPA, docosapentaenoic acid (DPA), docosahexaenoic acid (DHA), arachidonic acid (AA), dihomo-γ-linolenic acid (DGLA), the ratio of EPA/AA, ratio of oleic acid/stearic acid (OA/SA), and the ratio of total omega-3 acids over total omega-6 acids. […]"}, "[4]": {"conditions": "IPE 4 g/day (n = 216), 12 weeks, patients with lipoprotein data"}},
  "data": [
    {"molecule": "CC/C=C\\C/C=C\\C/C=C\\C/C=C\\C/C=C\\CCCC(=O)OCC", "note": "[AMR101, ethyl eicosapentaenoate]", "values": [
      {"measurement": "Oxidized LDL Week 12 EP Median (IQR)", "setting": "[1]; AMR101 2 g/d + statin", "result": "55.8 (22.8) U/L"},
      {"measurement": "Oxidized LDL Percent change from Baseline Median (IQR)", "setting": "[1]; AMR101 2 g/d + statin", "result": "2.6 (18.3) %"},
      {"measurement": "Oxidized LDL Difference from placebo Estimated median", "setting": "[1]; AMR101 2 g/d + statin", "result": "−5.8", "unit": "%"},
      {"measurement": "Oxidized LDL Week 12 EP Median (IQR)", "setting": "[1]; AMR101 4 g/d + statin", "result": "51.4 (17.5) U/L"},
      {"measurement": "Oxidized LDL Percent change from Baseline Median (IQR)", "setting": "[1]; AMR101 4 g/d + statin", "result": "−4.8 (19.6) %"},
      {"measurement": "Oxidized LDL Difference from placebo Estimated median", "setting": "[1]; AMR101 4 g/d + statin", "result": "−13.3", "unit": "%"},
      {"measurement": "Lp-PLA2 Week 12 EP Median (IQR)", "setting": "[2]; AMR101 2 g/d + statin", "result": "183.5 (57.5) ng/mL"},
      {"measurement": "Lp-PLA2 Percent change from Baseline Median (IQR)", "setting": "[2]; AMR101 2 g/d + statin", "result": "−1.8 (23.1) %"},
      {"measurement": "Lp-PLA2 Difference from placebo Estimated median", "setting": "[2]; AMR101 2 g/d + statin", "result": "−8.0", "unit": "%"},
      {"measurement": "Lp-PLA2 Week 12 EP Median (IQR)", "setting": "[2]; AMR101 4 g/d + statin", "result": "160.0 (57.0) ng/mL"},
      {"measurement": "Lp-PLA2 Percent change from Baseline Median (IQR)", "setting": "[2]; AMR101 4 g/d + statin", "result": "−12.8 (18.5) %"},
      {"measurement": "Lp-PLA2 Difference from placebo Estimated median", "setting": "[2]; AMR101 4 g/d + statin", "result": "−19.0", "unit": "%"},
      {"measurement": "Apo A1 Week 12 EP Median (IQR)", "setting": "[3]; AMR101 2 g/d + statin", "result": "141.0 (26.0) mg/dL"},
      {"measurement": "Apo B Week 12 EP Median (IQR)", "setting": "[3]; AMR101 2 g/d + statin", "result": "95.0 (24.0) mg/dL"},
      {"measurement": "Apo B/Apo A1 ratio Week 12 EP Median (IQR)", "setting": "[3]; AMR101 2 g/d + statin", "result": "0.7 (0.2)"},
      {"measurement": "Lp (a) Week 12 EP Median (IQR)", "setting": "[3]; AMR101 2 g/d + statin", "result": "12.0 (33.0) mg/dL"},
      {"measurement": "Apo A1 Percent change from Baseline Median (IQR)", "setting": "[3]; AMR101 2 g/d + statin", "result": "2.0 (13.0) %"},
      {"measurement": "Apo B Percent change from Baseline Median (IQR)", "setting": "[3]; AMR101 2 g/d + statin", "result": "1.6 (20.7) %"},
      {"measurement": "Apo B/Apo A1 ratio Percent change from Baseline Median (IQR)", "setting": "[3]; AMR101 2 g/d + statin", "result": "0.1 (18.3) %"},
      {"measurement": "Lp (a) Percent change from Baseline Median (IQR)", "setting": "[3]; AMR101 2 g/d + statin", "result": "0.0 (24.9) %"},
      {"measurement": "Apo A1 Difference from placebo Estimated median", "setting": "[3]; AMR101 2 g/d + statin", "result": "−1.7", "unit": "%"},
      {"measurement": "Apo B Difference from placebo Estimated median", "setting": "[3]; AMR101 2 g/d + statin", "result": "−3.8", "unit": "%"},
      {"measurement": "Apo B/Apo A1 ratio Difference from placebo Estimated median", "setting": "[3]; AMR101 2 g/d + statin", "result": "−2.0", "unit": "%"},
      {"measurement": "Lp (a) Difference from placebo Estimated median", "setting": "[3]; AMR101 2 g/d + statin", "result": 0.0, "unit": "%"},
      {"measurement": "Apo A1 Week 12 EP Median (IQR)", "setting": "[3]; AMR101 4 g/d + statin", "result": "137.0 (29.0) mg/dL"},
      {"measurement": "Apo B Week 12 EP Median (IQR)", "setting": "[3]; AMR101 4 g/d + statin", "result": "90.0 (25.0) mg/dL"},
      {"measurement": "Apo B/Apo A1 ratio Week 12 EP Median (IQR)", "setting": "[3]; AMR101 4 g/d + statin", "result": "0.7 (0.2)"},
      {"measurement": "Lp (a) Week 12 EP Median (IQR)", "setting": "[3]; AMR101 4 g/d + statin", "result": "9.0 (31.0) mg/dL"},
      {"measurement": "Apo A1 Percent change from Baseline Median (IQR)", "setting": "[3]; AMR101 4 g/d + statin", "result": "−2.9 (12.6) %"},
      {"measurement": "Apo B Percent change from Baseline Median (IQR)", "setting": "[3]; AMR101 4 g/d + statin", "result": "−2.2 (16.4) %"},
      {"measurement": "Apo B/Apo A1 ratio Percent change from Baseline Median (IQR)", "setting": "[3]; AMR101 4 g/d + statin", "result": "−0.7 (20.3) %"},
      {"measurement": "Lp (a) Percent change from Baseline Median (IQR)", "setting": "[3]; AMR101 4 g/d + statin", "result": "0.0 (10.0) %"},
      {"measurement": "Apo A1 Difference from placebo Estimated median", "setting": "[3]; AMR101 4 g/d + statin", "result": "−6.9", "unit": "%"},
      {"measurement": "Apo B Difference from placebo Estimated median", "setting": "[3]; AMR101 4 g/d + statin", "result": "−9.3", "unit": "%"},
      {"measurement": "Apo B/Apo A1 ratio Difference from placebo Estimated median", "setting": "[3]; AMR101 4 g/d + statin", "result": "−2.4", "unit": "%"},
      {"measurement": "Lp (a) Difference from placebo Estimated median", "setting": "[3]; AMR101 4 g/d + statin", "result": 0.0, "unit": "%"},
      {"measurement": "Apo-B, Change From Baseline, % (median)", "setting": "[3]; [4]", "result": "−2.2", "unit": "%"},
      {"measurement": "Apo-B, End of Treatment (median)", "setting": "[3]; [4]", "result": 90.0, "unit": "mg/dL"},
      {"measurement": "Apo-B, Median Change From Baseline IPE 4 g/day vs Placebo, %", "setting": "[3]; IPE 4 g/day vs placebo, 12 weeks, Hodges-Lehmann median", "result": "−8.8", "unit": "%"}
    ]}
  ]
}
